These results are taken from patent US10183011B2, “Anti-depression compounds” (Board of Regents of the University of Texas System, priority 2009, dated 2019).

One series has as its target H1 histamine receptor (Homo sapiens, UniProt P35367). Kind of series: Binding to the H1 histamine receptor. Here is the method: Example 45 Compound and Dimebon were tested for binding to the H1 histamine receptor.
Series [1] can be described thus: Brain and blood levels three weeks after MPTP administration (LC/MS/MS). The format is in vivo, mouse (C57BL/6). The conditions noted are these: 21 days i.p. dosing after MPTP. The method, then: Data are expressed as mean±SEM. Three animals were tested per group.
C57BL/6 mice treated with MPTP and then dosed IP with compound for 21 days were utilized for pharmacokinetic (PK) analysis of total P7C3, P7C3A20 and Dimebon levels in plasma and brain. In a separate set of experiments designed to test the ability of new P7C3 analogs to cross the blood brain barrier, C57BL/6 mice were dosed IP a single time with compounds at 10 mg/kg. P7C3, P7C3A20 and Dimebon were formulated for administration as described above. Analogs were formulated in 5% Dextrose, pH 7.4, containing 5% DMSO and 10% Cremophor EL with the exception of P7C3-S8 which required 10% DMSO and 20% Cremophor EL dissolved in 5% Dextrose for delivery. Six hours after the final compound dose, animals were given an inhalation overdose of CO2 and whole blood and brain collected. Plasma was prepared from blood and was stored along with the brain tissue at −80° C. until analysis. […] The supernatant was then analyzed by LC/MS/MS. […] The limit of quantitation (LOQ) was defined as the lowest concentration at which back calculation yielded a concentration within 20% of the theoretical value and above the LOD signal. […] Compound levels were monitored by LC/MS/MS using an AB/Sciex (Framingham, Mass.) 3200 Qtrap mass spectrometer coupled to a Shimadzu (Columbia, Md.) Prominence LC.

In another series the test system is aged Fisher 344 rats. Kind of series: Aged rats: hippocampal neurogenesis, Morris water maze, apoptosis, body weight. The format is in vivo, rat (Fisher 344). Here is the method:
FIG. 20A, FIG. 20B, FIG. 20C, FIG. 20D and FIG. 20E: Effect of Example 45 Compound in aged rats. (FIG. 20A) Example 45 Compound (20 mg/kg/d, i.p.) and BrdU (50 mg/kg, i.p.) were administered daily for 7 days to 12-18 month old Fisher 344 rats (n=4 in each group). P7C3 promoted neural precursor cell proliferation by roughly 5 fold compared to vehicle. (*p<0.001, Students t test). […] These micrographs were taken at the same magnification. Scale bar=[…]. Data are expressed as mean+/−SEM. […] Data are expressed as mean+/−SEM. […] Data are expressed as mean+/−SEM.
Many more of the BrdU-labeled cells were noted to have migrated into the granular layer in Example 45 Compound-treated rats in comparison to vehicle treated animals, consistent with their functional incorporation into the dentate gyrus as properly wired neurons. The scale bar represents […]. […] The scale bar represents […]. […] In all graphs data are expressed as mean±SEM.
It was first evaluated whether Example 45 Compound would enhance hippocampal neurogenesis in aged rats as it does in adult mice. Rats were injected with a daily, IP dose of either […] of Example 45 Compound or vehicle, coinjected with a daily dose of BrdU, and then sacrificed after 7 days for immunohistochemistry. […] Having observed proneurogenic efficacy of Example 45 Compound in this short term assay, it was then tested whether prolonged administration of Example 45 Compound might ameliorate age-related decline in cognition by subjecting 18-month-old rats to daily administration of either […] of Example 45 Compound or vehicle only for 2 months. Animals of both groups were further subjected to weekly IP administration of BrdU (50 mg/kg) for later immunohistochemical measurements of hippocampal neurogenesis. As a control, both Example 45 Compound- and vehicle-treated groups were confirmed to display equal ability to physically participate in the task, and learn the task, as shown by decreased latency times to find the hidden platform over the 5 day training period, both before and after 2 months of treatment (FIG. 20B). Moreover, neither swim speed (FIG. 20C) nor locomotor activity (FIG. 20D) varied with age or treatment paradigm.
After 2 months of compound or vehicle administration, cognitive ability was assessed blind to treatment group by removing the goal platform. Animals of the Example 45 Compound-treated group retained a statistically significant improvement in ability to navigate to the region of the missing platform, as evidenced by performance in the probe test.
After behavioral testing, animals were sacrificed for immunohistochemical detection of BrdU and CCSP3. […] Next it was tested whether Example 45 Compound-mediated preservation of body weight in aged rats operates via central or peripheral modes of action.

Molecules are shown by their SMILES. Entries after “also recorded” stand apart in the source; their conditions may differ. Read-outs that look alike come from different tables or passages of the source. Where only a bound is given, the exact number is not on record here.

Sequence of H1 histamine receptor (P35367 whole entry): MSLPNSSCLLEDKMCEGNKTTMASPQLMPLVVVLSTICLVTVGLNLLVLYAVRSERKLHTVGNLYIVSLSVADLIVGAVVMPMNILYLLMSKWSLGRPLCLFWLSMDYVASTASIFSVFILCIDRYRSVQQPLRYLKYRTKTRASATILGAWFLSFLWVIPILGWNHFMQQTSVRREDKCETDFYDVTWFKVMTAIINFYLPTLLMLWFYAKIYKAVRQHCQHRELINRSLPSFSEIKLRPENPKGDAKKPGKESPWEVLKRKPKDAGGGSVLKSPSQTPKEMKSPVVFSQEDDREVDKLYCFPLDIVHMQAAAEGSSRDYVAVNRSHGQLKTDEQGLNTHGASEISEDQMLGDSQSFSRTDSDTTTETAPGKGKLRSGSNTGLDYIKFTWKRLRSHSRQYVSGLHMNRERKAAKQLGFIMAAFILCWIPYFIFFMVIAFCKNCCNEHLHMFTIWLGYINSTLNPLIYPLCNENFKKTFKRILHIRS

With `Cc1ccc2c(c1)c1c(n2CCc2ccc(C)nc2)CCN(C)C1` [Dimebon, 2,3,4,5-Tetrahydro-2,8-dimethyl-5-(2-(6-methyl-3-pyridyl)ethyl)-1H-pyrido(4,3-b)indole, reference compound], the IC50 on H1 histamine receptor is less than 0.1 µM. The “brain accumulation relative to other compound” value in series [1] is listed as “comparable levels of brain accumulation to P7C3A20; also recorded: equivalent to P7C3”.
Regarding `OC(CNc1ccccc1)Cn1c2ccc(Br)cc2c2cc(Br)ccc21` (stereo not drawn) [Example 45 Compound], the IC50 on H1 histamine receptor (both enantiomers) was more than 10 µM. Moreover, in the series with aged Fisher 344 rats (after 2 months of treatment), the “apoptotic cells in the dentate gyrus” value is reported as “statistically significant reduction in the number of CCSP3-positive cells” and the “level of BrdU-positive neurons in the dentate gyrus versus vehicle” value is listed as 3 fold. Besides, the “postfasting blood glucose levels” value in the series on aged Fisher 344 rats (aged rats) is given as “had no effect on postfasting blood glucose levels”. The “body weight with aging” value with aged Fisher 344 rats (aged rats, 2 months of treatment) is “helped rats maintain stable body weight with aging”. In the series with aged Fisher 344 rats (daily IP for 7 days, aged rats), the “increase in BrdU labeling in the dentate gyrus relative to vehicle” value is listed as 500%. Besides, the “crossings of the location previously containing the platform” value with aged Fisher 344 rats (probe test after 2 months of treatment) is “significantly more often than vehicle-treated rats”. Besides, the “percentage of time in the general goal area (quadrant previously containing the platform)” value with aged Fisher 344 rats (probe test after 2 months of treatment, vehicle 28.1%±2.6%) was 35.5%±2.2%.
Take `COc1cccc(NCC(F)Cn2c3ccc(Br)cc3c3cc(Br)ccc32)c1` (stereo not drawn) [Example P7C3A20, N-(3-(3,6-dibromo-9H-carbazol-9-yl)-2-fluoropropyl)-3-methoxyaniline]: in series [1], the “brain accumulation relative to other compound” value is “less than one-tenth the concentration of P7C3; also recorded: about one-tenth”.
Take `OC(CNc1ccccc1)Cn1c2ccc(Br)cc2c2cc(Br)ccc21` (stereo not drawn) [Example P7C3]: the “neural precursor cell proliferation (BrdU) compared to vehicle” value with aged Fisher 344 rats (daily i.p. for 7 days, 12-18 month old Fisher 344 rats) was “roughly 5 fold”.

One may read the IC50 as the concentration that inhibits the measured activity by half.
